From patent US10973912B2, “Treatment for myopathy” (Children's Medical Center Corporation, priority 2015, dated 2021)

What was measured:
ryr1b skeletal muscles = experiment: Tetanic force per cross-sectional area in larvae at 5 dpf; format: in vivo, zebrafish (Danio rerio); settings: WT, n=5, 9 biphasic 200 μs pulses at 300 Hz
Procedure: Tetanic forces were measured following stimulation with 9 biphasic, 200 μs square-wave pulses at 300 Hz (WT-DMSO: 45.6±4.2 kPa, n=5; WT-NIF: 52.8±4.1 kPa, n=5; ryr1b-DMSO: 11.4±1.3 kPa, n=7; ryr1b-NIF: 25.4±4.0 kPa, n=7). Significance was determined by a one-way ANOVA (F=29.61, P<0.0001), followed by pairwise Tukey's HSD post hoc tests. […] Non-linear regression data of curves were not statistically different, as determined by an extra sum-of-squares F test (P=1.0).
Ryr1b mutants display weaker muscle contractions than wild-type clutchmates as early as 2 dpf^30. To investigate whether […] affects contractile strength in zebrafish, ryr1b mutants and unaffected controls were treated with the compound for several days. At 5 dpf, electrophysiological studies were performed with the help of Dr. Jeffrey Widrick.

ryr1b mutants = experiment: Body angle measurement after 20 days of treatment; format: in vivo, zebrafish (Danio rerio)
Procedure: In FIG. 10A, body angles of ryr1b mutants after 20 days of NIF treatment (10.0 μg/mL) are corrected and statistically indistinguishable from wild-type controls. […] Angles were measured by first drawing/extending straight lines between the eyes of the larva as well as along the midline of the trunk (shown by dotted red lines). The angle of intersection was determined using Adobe Photoshop CS3 software (WT-DMSO: 179.1±0.9°, n=6; WT-NIF: 176.8±1.1°, n=6; ryr1b-DMSO: 142.6±6.2°, n=11; ryr1b-NIF: 174.4±2.0°, n=4). Significance was determined by a one-way ANOVA (F=13.60, P<0.0001), followed by pairwise Tukey's HSD post hoc tests. […] Three independent trials were performed with larvae from three different clutches, examining a total of 14-20 wild-type and ryr1b larvae from both DMSO- and NIF-treated groups. Genotypes of individual embryos were confirmed by genomic PCR following the study. Significance was determined by a one-way ANOVA (F=10.03, P=0.0009), followed by pairwise Tukey's HSD post hoc tests. […] One representative 20-minute time interval within the recording period is shown.
This bending is likely a consequence of skeletal muscle weakness, and may be analogous to neck and trunk flexor weakness observed in human patients with MmD (FIG. 10A). To determine if NIF could correct this abnormality, larvae were treated with the compound from 1 to 20 dpf. After 20 days, body angles were measured as the angle of intersection between two lines, one drawn between the eyes of each larva and one drawn along the trunk midline. […] These improvements in morphology reflect long-term strengthening of ryr1b skeletal muscles as a result of exposure to NIF.

For O=C(N/N=C/c1ccc([N+](=O)[O-])o1)c1ccc(O)cc1 [Nifuroxazide], the “tetanic force per cross-sectional area, wild-type larvae” value (ryr1b skeletal muscles) was 52.8±4.1 kPa, the “body angle, wild-type larvae” value (ryr1b mutants; 20 days of treatment, 10.0 μg/mL, WT, n=6) was 176.8±1.1 ° and the “body angle, ryr1b mutants” value (ryr1b mutants; 20 days of treatment, 10.0 μg/mL, ryr1b, n=4, ryr1b-DMSO 142.6±6.2) was 174.4±2.0 °. The “body angles of treated ryr1b mutants” value (ryr1b mutants; treated from 1 to 20 dpf) was “significantly increased and statistically indistinguishable from unaffected controls”.
